The text below walks through data of US20090012018A1, “Inhibition of pancretic cancer cell growth” (priority 2004, published 2009).

“Also recorded” adds a separate entry of the source.

In one assay the test system is CFPAC-1. Briefly: Sensitivity of pancreatic adenocarcinoma cells to drug treatment (cell proliferation, apoptosis). Type of assay: cell-based, human. The following applies: CFPAC-1 (CFPAC); vs untreated controls; FIG. 3B, 5. How it is done: (§1) The culture media was changed every 48 hrs.
(§2) Cells were pulsed with 10 μM BrdU for two hours and then harvested and fixed. BrdU incorporation was detected with a fluorescein isothiocyanate conjugated anti-BrdU antibody (BD Biosciences) and total DNA was stained with 7-AAD (BD Biosciences). FACS analysis was performed according to the BD Biosciences BrdU flow kit manual. Cells in S-phase were defined as the BrdU-positive cell population with a DNA content between 2N and 4N. According to the manual, apoptotic cells were defined as a subpopulation of G0/G1 cells with DNA content lower than the diploid amount (<2N).

In another assay the test system is L3.6pl. The assay is described as follows: Sensitivity of pancreatic adenocarcinoma cells to drug treatment (cell proliferation). The following applies: reduction in cell proliferation. Type of assay: cell-based, human. The procedure: as §1, §2
Another assay relates to Panc2.03. The assay is described as above. Type of assay: cell-based, human. The following applies: reduction in cell proliferation. The procedure:
as §1, §2

For another assay, the system named is Panc3.27. The description is as above. The class given is cell-based, human. The following applies: reduction in cell proliferation. The procedure: as §1, §2
In another assay the test system is Panc6.03. The assay is described as above. The following applies: reduction in cell proliferation. Type of assay: cell-based, human. The procedure: as §1, §2
The subject of assay [1] is Wnt signaling (Top-Flash reporter). Briefly: Fop/Top-Flash luciferase reporter assay. Type of assay: cell-based, human. The following applies: CFPAC-1, BxPC3, L3.6sl, Panc4.21, 24 hrs after transfection, sulindac 250 μM, sulindac sulfone 150 μM, cyclopamine 10 μM, or co-transfection. How it is done: The cell lines were plated the day prior to transfection at a density of 8×10^4 cells/well in a 24-well plate. The luciferase reporter constructs used included: Top-Flash and Fop-Flash containing multimerized Tcf-Lef binding sites or nonfunctional sites, respectively; TK-Luc (Promega); and GliBS containing 8×Gli binding sites upstream of the TK minimal promoter (Sasaki et al., Development, 124:1313-1322, 1997). In different experiments, the reporter constructs were co-transfected with an expression vector containing a dominant-negative form of Lef1 or the endogenous Wnt inhibitor Icat. The dominant negative Lef1 (gift from S. Pleasure) was generated by cloning the 63 amino acid N-terminal deleted form of Lef1 into the pEF5 plasmid. This construct also contains an IRES-EGFP cassette. The cDNA coding for the Icat protein was cloned into pIRES2-EGFP (BD Biosciences Clontech). Transfections were performed using the Effectene transfection reagent […] according to the user's manual. A Renilla luciferase plasmid (Promega) was included to control for transfection efficiency. Transfected cells were cultured in medium containing serum. […] Cells were harvested 24 hrs after transfection, and luciferase activity was assayed using the Dual Luciferase kit (Promega), according to the user's manual.
For each Fop-luciferase or Top-luciferase experiment, a renilla luciferase construct was included. For each experimental condition (drug treatment, co-transfection or siRNA), triplicate Top- and Fop-luciferase samples were analyzed. To equilibrate the total vector-DNA (or siRNA) amount in all samples, equivalent amounts of an empty expression vector or unrelated siRNAs were transfected into control samples. The following equations were used to obtain the normalized luciferase values and the relative (fold) activation. The firefly luciferase (Fop and Top) values were divided by the renilla luciferase values to obtain the normalized luciferase values. The normalized Top values for each condition were divided by the Fop values of the same condition (e.g., untreated Top/untreated Fop; drug-treated Top/drug-treated Fop). […] To minimize the number of bars in each figure, only representative average Fop values are included in the graphs.

Assay [2] relates to Hedgehog signaling (GliBS-luc reporter). Briefly: GliBS-luciferase reporter assay. The class given is cell-based, human. The following applies: CFPAC-1, BxPC3, L3.6sl, Panc4.21; cyclopamine 10 μM, sulindac 250 μM; FIG. 4B. How it is done:
The cell lines were plated the day prior to transfection at a density of 8×10^4 cells/well in a 24-well plate. The luciferase reporter constructs used included: Top-Flash and Fop-Flash containing multimerized Tcf-Lef binding sites or nonfunctional sites, respectively; TK-Luc (Promega); and GliBS containing 8×Gli binding sites upstream of the TK minimal promoter (Sasaki et al., Development, 124:1313-1322, 1997). In different experiments, the reporter constructs were co-transfected with an expression vector containing a dominant-negative form of Lef1 or the endogenous Wnt inhibitor Icat. The dominant negative Lef1 (gift from S. Pleasure) was generated by cloning the 63 amino acid N-terminal deleted form of Lef1 into the pEF5 plasmid. This construct also contains an IRES-EGFP cassette. The cDNA coding for the Icat protein was cloned into pIRES2-EGFP (BD Biosciences Clontech). Transfections were performed using the Effectene transfection reagent […] according to the user's manual. A Renilla luciferase plasmid (Promega) was included to control for transfection efficiency. Transfected cells were cultured in medium containing serum. […] Cells were harvested 24 hrs after transfection, and luciferase activity was assayed using the Dual Luciferase kit (Promega), according to the user's manual. […]
For orientation: In a reporter assay the amount or activity of a reporter protein is the signal.

The test system of a further assay is BxPC3 tumors. Briefly: Subcutaneous tumor treatment in nude mice. The class given is in vivo, CD-1 nude mice. The procedure:
(§3) A total of 0.1 ml Hanks' balanced salt solution and matrigel (1:1) containing 2×10^6 cells was injected subcutaneously into CD-1 nude mice (Charles River Laboratories). Tumors were grown for 4 days to a minimum volume of 125 mm^3. Treatment was initiated simultaneously for all subjects. Mice were injected with vector alone (peanut oil: PBS 7:3 v/v) or with a sulindac solution (3 mg/mouse/day) daily for 5 days. Sulindac sulfone was administered orally (1.5 mg/mouse/day). At the end of the treatment period, tumors were excised from mice, weighed and photographed.

For a further assay, the system named is CFPAC-1 tumors. Briefly: Subcutaneous tumor treatment in nude mice. The class given is in vivo, CD-1 nude mice. The following applies: treated for five days vs controls, sulindac 3 mg/mouse/day injected, sulindac sulfone 1.5 mg/mouse/day orally. The procedure: as §3
A further assay deals with L3.6sl tumors. The assay is described as follows: Subcutaneous tumor treatment in nude mice. Type of assay: in vivo, CD-1 nude mice. The procedure: as §3
Individual or combined treatment was initiated after tumors were palpable.

A further assay concerns Tcf4. Briefly: Immunofluorescence of Tcf expression in pancreatic cancer cells. The class given is cell-based, human. The following applies: cyclopamine for 24 hrs (FIG. 4C) or sulindac-treated.
The subject of a further assay is Tcf1. The description is as above. The class given is cell-based, human. The following applies: pancreatic cancer cells (Panc4.21); cyclopamine for 24 hrs (FIG. 4C) or sulindac-treated.
Setting [3] is: sulindac 3 mg/mouse/day injected daily for 5 days.
[4] abbreviates: treated for five days vs untreated controls, sulindac 3 mg/mouse/day injected, sulindac sulfone 1.5 mg/mouse/day orally.

With `CC1=C(CC(=O)O)c2cc(F)ccc2/C1=C\c1ccc([S+](C)[O-])cc1` (stereo not drawn) [sulindac], in the assay with CFPAC-1, the “cell growth (proliferation, apoptosis)” value is reported as “not affected; also recorded: only marginally affected”. For the same compound, the “Sulindac Sensitivity” value with L3.6pl, in the assay with Panc2.03, in the assay on Panc3.27 and with Panc6.03 was “Positive” throughout. For the same compound, the “Top-Flash reporter activity (Wnt signaling)” value in [1] is “inhibit Wnt activity; also recorded: inhibited; also recorded: showed an inhibitory effect”; in [1] (listed as Sulindac), “suppressed Top-Flash reporter activation in all cell lines tested”. Also, in [2], the “activity of the GliBS-luc Hedgehog reporter” value is “unaffected; also recorded: had no affect”. Also, the “reduction in tumor volume compared to untreated samples” value in the assay on BxPC3 tumors (setting [3]) and in the assay on L3.6sl tumors (setting [3]) was 80% throughout. Further, the tumor growth result in the assay with BxPC3 tumors (setting [4]) and in the assay with L3.6sl tumors (setting [4]) was “strongly reduced” throughout. Besides, in the assay on CFPAC-1 tumors, the “tumor growth (volume, size)” value is “largely unaffected; also recorded: No reduction”. For the same compound, the Tcf4 expression result in the assay with Tcf4 is listed as “reduced”. Further, the Tcf1 expression entry in the assay with Tcf1 is reported as “reduced”.
